Reference: ChEMBL document CHEMBL4402532, “Heme Oxygenase-2 (HO-2) as a therapeutic target: Activators and inhibitors” (Eur J Med Chem, 2019)

What was measured:
Format in all cases: microsomes
Heme oxygenase 1 [1] = biological target: T1, Heme oxygenase 1 (Rattus norvegicus, UniProt P06762); experiment: Inhibition of Sprague-Dawley rat spleen microsome HO-1 preincubated for 10 mins followed by beta-NADPH addition and measured after 15 mins by gas chromatography
T1 sequence (P06762 whole entry): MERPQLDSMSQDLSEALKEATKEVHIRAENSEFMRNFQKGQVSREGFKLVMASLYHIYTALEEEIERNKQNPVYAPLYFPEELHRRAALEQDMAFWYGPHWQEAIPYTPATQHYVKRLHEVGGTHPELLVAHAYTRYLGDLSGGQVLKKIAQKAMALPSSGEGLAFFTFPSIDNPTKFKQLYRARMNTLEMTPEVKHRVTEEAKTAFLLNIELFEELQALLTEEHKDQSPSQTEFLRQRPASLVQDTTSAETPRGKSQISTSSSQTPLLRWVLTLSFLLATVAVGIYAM

Heme oxygenase 2 [2] = biological target: T2, Heme oxygenase 2 (Rattus norvegicus, UniProt P23711); experiment: Inhibition of Sprague-Dawley rat brain microsome HO-2 preincubated for 10 mins followed by beta-NADPH addition and measured after 15 mins by gas chromatography
T2 sequence (P23711 whole entry): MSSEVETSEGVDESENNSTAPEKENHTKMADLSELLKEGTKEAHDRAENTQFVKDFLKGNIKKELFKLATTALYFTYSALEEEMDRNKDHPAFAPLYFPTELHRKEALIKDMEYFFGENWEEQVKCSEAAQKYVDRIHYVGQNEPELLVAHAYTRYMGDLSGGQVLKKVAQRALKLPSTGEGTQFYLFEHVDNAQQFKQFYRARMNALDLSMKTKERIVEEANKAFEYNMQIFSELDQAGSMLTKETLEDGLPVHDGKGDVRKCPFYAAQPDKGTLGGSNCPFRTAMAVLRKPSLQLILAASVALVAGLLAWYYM

[3] = biological target: T3, Heme oxygenase 1 (Rattus norvegicus) (UniProt P06762); experiment: Activation of rat spleen microsome HO-1 preincubated for 10 mins followed by NADPH addition and measured after 15 mins by gas chromatography relative to control; parameters: concentration or dose not given beside the values
T3 sequence (whole entry): T1 sequence (P06762 whole entry)

[4] = biological target: T4, Heme oxygenase 2 (Rattus norvegicus) (UniProt P23711); experiment: Activation of rat brain microsome HO-2 […] preincubated for 10 mins followed by NADPH addition and measured after 15 mins by gas chromatography relative to control; parameters: concentration or dose not given beside the values
T4 sequence (whole entry): T2 sequence (P23711 whole entry)

Heme oxygenase 2 [5] = biological target: T2, Heme oxygenase 2; experiment: Inhibition of rat brain microsome HO-2 preincubated for 10 mins followed by beta-NADPH addition and measured after 15 mins by gas chromatography
Heme oxygenase 1 [6] = biological target: T1, Heme oxygenase 1; experiment: Inhibition of rat spleen microsome HO-1 preincubated for 10 mins followed by beta-NADPH addition and measured after 15 mins by gas chromatography

| SMILES | IC50 (Heme oxygenase 1 [1]) [µM] | IC50 (Heme oxygenase 2 [2]) [µM] | further results |
| --- | --- | --- | --- |
| c1ccc(Cn2c(CC3CC4CCC3C4)nc3ccccc32)cc1 (stereo unspecified) | > 100 | 6.3 |  |
| O=C(Cn1cncn1)c1ccc(Cc2ccccc2)cc1 | 2.7 | 7 |  |
| COc1ccc(CC(O)CCn2ccnc2)cc1 (stereo unspecified) | 0.7 | 6 |  |
| Brc1ccc(Cn2c(CC3CCCC3)nc3ccccc32)cc1 | 75.6 | 8.4 |  |
| O=C1CCCc2ccccc21 |  |  | Activity [3]: 98%; Activity [4]: 96% |
| O[C@H](Cn1ccnc1)c1ccc(CCc2ccccc2)cc1 | 0.225 | 8 |  |
| Cc1ccc(S(=O)(=O)C[C@@H]2CO[C@@](CCc3ccc(Cl)cc3)(Cn3ccnc3)O2)cc1 | 6 | 3 |  |
| CC(C)(C)N1COc2ccc3c4c(oc3c2C1)C(=O)c1ccccc1C4=O |  |  | Activity [3]: 85%; Activity [4]: 345% |
| O=C(Cn1ccnc1)c1ccc(Cl)c(Cl)c1 | 1.24 |  |  |
| c1ccc(CCCCCCn2ccnc2)cc1 | 2.8 | 20 |  |
| O=C(Cn1ccnc1)c1ccc(C2CCCCC2)cc1 | 5 | 6 |  |
| CC(C)N1CCN(c2ccc(OCC3COC(Cn4cncn4)(c4ccc(Cl)cc4Cl)O3)cc2)CC1 (stereo unspecified) [TERCONAZOLE] |  |  | IC50 (Heme oxygenase 2 [5]): 5 µM; IC50 (Heme oxygenase 1 [6]): 0.41 µM |
| O=C(Cn1ccnc1)c1ccc(Cl)c(Cl)c1Cl | 2.1 | 6 |  |
| O=C1C(O)=C(Cl)C(=O)c2ccccc21 |  |  | Activity [3]: 106%; Activity [4]: 108% |
| O=C(Cc1ccc(Br)cc1)Cn1ccnn1 | 0.39 | 3 |  |
| c1ccc(CCCCn2ccnc2)cc1 | 0.25 | 6.7 |  |
| COc1ccc(NC2=C(N3CCCCC3)C(=O)c3ccccc3C2=O)cc1 |  |  | Activity [3]: 82%; Activity [4]: 249% |
| Cc1ccc(Cn2c(CC3CCCC3)nc3ccccc32)cc1 | 18.1 | 8.6 |  |
| c1ccc(CSCCn2ccnc2)cc1 |  | 10 |  |
| OC(Cn1ccnc1)CC12CC3CC(CC(C3)C1)C2 (stereo unspecified) | 2 | 6.5 |  |
| O=C1C=CC(=O)c2ccccc21 |  |  | Activity [3]: 71%; Activity [4]: 503% |
| O=C(Cn1ccnc1)c1cccc2ccccc12 | 2.24 | 10 |  |
| Fc1ccc(CO[C@@H](CCc2ccc(Cl)cc2)Cn2ccnc2)cc1 | 0.9 | 1 |  |
| Cc1oc2c(c1C(=O)N1CCCC1)C(=O)c1ccccc1C2=O |  |  | Activity [3]: 91%; Activity [4]: 602% |
